{
  "source": "patent US20150238445A1",
  "about": "(CATHOLIC UNIVERSITY INDUSTRY ACADEMIC COOPERATION FOUNDATION, priority 2012, published 2015)",
  "key": {"lupus mouse model": {"test_system": "lupus mouse model", "assay": "Spleen and liver observation (size, GC follicles, inflammatory cell infiltration) in lupus mouse model", "type": "in vivo", "procedure": "The size of those spleen and liver was measured by the naked eye, and the size and the number of GC follicle (Germinal Center follicle) were also observed.\nThe infiltration of inflammatory cells around the blood vessels of liver tissue was also observed."}, "pathogenic B cells": {"test_system": "pathogenic B cells", "assay": "FACS and staining of spleen cells for pathogenic B cells, GC and THF in lupus mouse model", "type": "in vivo", "from_the_text": "Then, spleen cells were separated therefrom and B cell was observed. Particularly, the representative pathogenic B cells, B220−CD138+ long lived plasma B cell and GL7+B220+ germinal center B cell, were observed. For the observation, the spleen cells separated from each group were stained with CD138 and B220 and the […] were stained with GL7 and B220, followed by FACS to examine the expression of each cell."}, "[1]": {"test_system": "regulatory T cell and Th17 cell", "assay": "Regulatory T cell and Th17 cell activity in lupus animal model", "type": "in vivo", "conditions": "vs control group"}, "TFH cell": {"test_system": "TFH cell", "assay": "TFH cell expression in spleen tissue, confocal staining, lupus animal model", "type": "in vivo, mouse", "conditions": "intraperitoneal injection 3 times a week; 5 weeks after the administration", "procedure": "Particularly, CD4-PerCP, B220-APC, GL-7-FITC, and IOCS-PE fluorescence staining was performed. Then, TFH cells expressing GL-7+ICOS+ in CD4 T cells were examined under fluorescent microscope."}, "pathogenic B cell": {"test_system": "pathogenic B cell", "assay": "IgG production by LPS-stimulated B cell", "type": "cell-based, mouse", "conditions": "metformin 1 μM, 2 μM, and 5 μM; LPS 1 μg/ml", "procedure": "Then, the level of IgG produced by B cell of the mouse was measured by the same manner as described in Example 1."}, "autophagy": {"test_system": "autophagy", "assay": "Autophagy molecules and IL-17/Foxp3 in T cells under Th17 differentiation, Western blotting and confocal staining", "type": "cell-based", "conditions": "1 mM metformin, 24 hours", "procedure": "(§1) Particularly, T cells were separated from the spleen cells of the lupus animal model. […] To analyze signal molecules in the cultured cells, protein was extracted from each condition of the cells. Western blotting was performed with the extracted protein. The protein separated by size was conjugated with each antibody against ATG5, p62, and 3-actin. The activity of each molecule was evaluated. Some of the cultured cells were conjugated with DAPI, IL-17, and Foxp3 fluorescent antibodies, whose expressions were examined under fluorescent microscope after confocal staining."}, "Th17 cell [2]": {"test_system": "Th17 cell", "assay": "Th17 differentiation of CD4+ T cells from lupus mouse spleen: FACS, real-time PCR, IL-17 ELISA", "type": "cell-based", "conditions": "3 days", "procedure": "Particularly, T cells were separated from the spleen of the lupus mouse model by using CD4+ microbeads. […] Upon completion of the culture, some of the cultured cells were stained with CD4-PerCP and ILo-17 PE, followed by FACS. RNA was separate from the remaining cells, from which Th17 cell related gene was amplified by real-time PCR. The expression of IL-17 in the culture solution was analyzed by ELISA (antigen-antibody examination)."}, "undifferentiated B cell": {"test_system": "undifferentiated B cell", "assay": "Differentiation of undifferentiated B cell into regulatory B cell (Breg)", "type": "cell-based", "conditions": "undifferentiated B cell treated with metformin", "from_the_text": "As a result, the numbers of both IL-10+ B cell and Foxp3+ B cell were all increased."}, "mTOR/STAT3": {"test_system": "mTOR/STAT3", "assay": "mTOR/STAT3 signalling in T cells from lupus animal model spleen, Western blotting and confocal staining", "type": "cell-based", "procedure": "as §1, with “p-AMPK, AMPK, p-mTOR, mTOR, p-STAT3 705, p-STAST3 727, STAT3, p-STAT5, STAT5,” for “ATG5, p62,”, “β-actin.” for “3-actin.”, “p-AMPK, AMPK, p-mTOR, p-STAT3 705, p-STAT3 727,” for “DAPI, IL-17,”, “p-p53” for “Foxp3”, “staining” for “staining.”\nIn addition, nucleus and cytoplasm were separated in order to examine the expression of NrF2 in the nucleus and cytoplasm. Electrophoresis was performed and then Nrf2, tubulin, and β-actin were analyzed by Western blotting."}, "B cell": {"test_system": "B cell", "assay": "B cell differentiation stages after LPS and metformin for 3 days, FACS", "type": "cell-based", "procedure": "FACS was performed to observe any changes of the cell in each stage of B cell differentiation."}, "lupus animal model": {"test_system": "lupus animal model", "assay": "Serum lupus-specific dsDNA and IgG by ELISA in the lupus animal model", "type": "in vivo, mouse", "conditions": "oral 100 mg/kg every day", "procedure": "At this time, the lupus animal model not treated with metformin was used as the control. […] The analysis of the treatment effect was performed as follows. […] Serum was separated from the blood extracted above. The levels of lupus-specific dsDNA (Sigma, cat no. D8515) and IgG (Sigma) in the separated serum were measured by ELISA. Particularly, 96-well plate was coated with dsDNA or anti-mouse IgG, to which the serum separated from the mouse blood was loaded, followed by reaction. Then, […] was added thereto, followed by reaction. Color development was induced by TMB system and the […] was measured."}, "Th17 cell [3]": {"test_system": "Th17 cell", "assay": "Th17 cytokine ELISA and electron microscopy with autophagy activity inhibitor in T cells of lupus mouse model", "type": "cell-based", "procedure": "Thus, the present inventors investigated whether or not the activation of autophagy could be directly involved in the suppression of Th17 cell by using an autophagy activity inhibitor. Particularly, T cells were separated from the spleen cells of the lupus mouse model. […] Upon completion of the culture, IL-17, IL-21, and TNF-α cytokines in the culture solution were analyzed by ELISA. Some of those cultured cells were observed under electron microscope to directly observe the activated autophagy therein."}, "[4]": {"conditions": "oral 100 mg/kg every day for 3 weeks, spleen cells, FACS, vs control"}, "[5]": {"conditions": "staining of spleen cells, vs lupus mouse model not treated"}, "[6]": {"conditions": "real-time PCR, Th17 differentiation"}, "[7]": {"conditions": "1 mM metformin with IL-6 or IL-2 (10 ng/ml), 24 hours"}, "[8]": {"conditions": "vs lupus group not treated with metformin"}},
  "data": [
    {"smiles": "CN(C)C(=N)NC(=N)N", "note": "[metformin]", "values": [
      {"measurement": "size and number of GC follicle", "setting": "lupus mouse model; spleen, vs group not treated with metformin", "value": "significantly decreased"},
      {"measurement": "size of spleen", "setting": "lupus mouse model; vs group not treated with metformin", "value": "significantly reduced"},
      {"measurement": "infiltration of inflammatory cells around the blood vessels of liver tissue", "setting": "lupus mouse model; vs lupus mouse group not treated with metformin", "value": "hardly observe"},
      {"measurement": "B220-CD138+ long lived plasma B cell", "setting": "pathogenic B cells; [4]", "value": "significantly reduced"},
      {"measurement": "GL7+B220+ germinal center B cell", "setting": "pathogenic B cells; [4]", "value": "significantly reduced"},
      {"measurement": "number of follicular B helper T cells (THF)", "setting": "pathogenic B cells; [5]", "value": "also reduced"},
      {"measurement": "size of GC", "setting": "pathogenic B cells; [5]", "value": "significantly reduced"},
      {"measurement": "activity of Th17", "setting": "[1]", "value": "decreased"},
      {"measurement": "activity of regulatory T cell", "setting": "[1]", "value": "increased"},
      {"measurement": "expression of TFH cell expressing ICOS in the spleen tissue", "setting": "TFH cell", "value": "suppressed"},
      {"measurement": "IgG production in B cell", "setting": "pathogenic B cell", "value": "reduced by metformin dose-dependently"},
      {"measurement": "ATG5 (autophagy activating molecule)", "setting": "autophagy; Western blotting", "value": "activate"},
      {"measurement": "p62 (autophagy activating molecule)", "setting": "autophagy; Western blotting", "value": "activate"},
      {"measurement": "expression of Foxp3", "setting": "autophagy; confocal staining", "value": "increase"},
      {"measurement": "expression of IL-17", "setting": "autophagy; confocal staining", "value": "suppress"},
      {"measurement": "expression of IL-17", "setting": "Th17 cell [2]; Th17 differentiation condition, metformin 0.1, 1, and 5 mM, FACS and ELISA", "value": "regulated by metformin"},
      {"measurement": "expression of Foxp3 gene", "setting": "Th17 cell [2]; [6]", "value": "increased"},
      {"measurement": "expression of Th-17 related gene Ahr", "setting": "Th17 cell [2]; [6]", "value": "suppression"},
      {"measurement": "expression of Th-17 related gene IL-17", "setting": "Th17 cell [2]; [6]", "value": "suppression"},
      {"measurement": "expression of Th-17 related gene IL-21", "setting": "Th17 cell [2]; [6]", "value": "suppression"},
      {"measurement": "expression of Th-17 related gene RUNX1", "setting": "Th17 cell [2]; [6]", "value": "suppression"},
      {"measurement": "expression of Th-17 related gene TNF-α", "setting": "Th17 cell [2]; [6]", "value": "suppression"},
      {"measurement": "number of Foxp3+ B cell", "setting": "undifferentiated B cell", "value": "increased"},
      {"measurement": "number of IL-10+ B cell", "setting": "undifferentiated B cell", "value": "increased"},
      {"measurement": "AMPK activity", "setting": "mTOR/STAT3; [7]", "value": "activated"},
      {"measurement": "mTOR/STAT3 activity", "setting": "mTOR/STAT3; [7]", "value": "suppression"},
      {"measurement": "expression of NrF2", "setting": "mTOR/STAT3; 1 mM metformin, nucleus and cytoplasm, Western blotting", "value": "increased"},
      {"measurement": "germinal center B cell", "setting": "B cell", "value": "suppressed by metformin dose-dependently"},
      {"measurement": "pre-long lived plasma cell B220+CD138 low cell", "setting": "B cell", "value": "suppressed by metformin dose-dependently"},
      {"measurement": "pro/preB cell in the stage of early B cell differentiation", "setting": "B cell", "value": "suppressed by metformin dose-dependently"},
      {"measurement": "level of IgG in serum", "setting": "lupus animal model; [8]", "value": "significantly reduced"},
      {"measurement": "level of lupus-specific dsDNA in serum", "setting": "lupus animal model; [8]", "value": "significantly reduced"},
      {"measurement": "level of lupus-specific dsDNA in serum compared with normal mouse group", "setting": "lupus animal model; vs normal (wild type) mouse group", "value": "rather lower than that of the normal mouse group"},
      {"measurement": "suppressed IL-17 expression when the autophagy inhibitor was co-treated", "setting": "Th17 cell [3]; 1 mM metformin plus 10 μM bafilomycin or methyladenine, 72 hours, ELISA", "value": "increased"},
      {"measurement": "expression of IL-17", "setting": "Th17 cell [3]; 1 mM metformin, Th17 differentiation, 72 hours, ELISA", "value": "suppressed"},
      {"measurement": "intracellular activation of autophagy", "setting": "Th17 cell [3]; electron microscope", "value": "directly confirmed"}
    ]}
  ]
}
